Data taken from patent US20130189366A1, “DRUG DELIVERY SYSTEMS AND METHODS OF USE” (Brown University, priority 2012, published 2013).
Where a name gives a salt, the structure may show the parent alone.

Key:
[1] = system: CHO-K1 Tet-IGF1 cells; test: Co-culture of CHO-K1 Tet-IGF1 cells with DOX loaded PLGA microspheres or bolus DOX, IGF-1 ELISA; format: cell-based, Chinese hamster; settings: total 2 μg DOX over 24 hours, unencapsulated and encapsulated cultures
Description: Cells were encapsulated and encapsulated cell count and viability were determined as described in Examples 1 and 2. Microencapsulated and unencapsulated CHO-K1 Tet-IGF1 cells were co-cultured with DOX loaded PLGA microspheres to assess DOX-inducible IGF-1 synthesis and delivery. Approximately 5×10^5 encapsulated or 5×10^4 unencapsulated cells were plated per well in 12-well plates. After incubating cultures for 24 hours at 37° C., medium was completely removed from each well and 2 mL fresh media containing one of the following was added to each well (n=3): 1 μg/mL DOX (Clontech), 1.6 mg of DOX loaded PLGA microspheres, 1.6 mg of unloaded PLGA control microspheres, or no DOX. The mass of spheres used in these studies was calculated to release a total of 2 μg of DOX after 24 hours of incubation as determined by the results of the cumulative in vitro release. Cultures were incubated for another 24 hours, at which time the supernatant from each culture was removed and stored at −20° C. for later measurement. For unencapsulated cultures, cells were trypsinized and counted using Trypan Blue exclusion. For encapsulated cultures, cells were collected via alginate solubilization prior to counting. IGF-1 was quantified as described in Example 2.

[2] = system: tetracycline inducible gene expression system (CHO-K1 Tet-IGF1 cells); test: DOX-induced IGF-1 release from CHO-K1 Tet-IGF1 cells (ELISA); format: cell-based, Chinese hamster; settings: encapsulated and unencapsulated CHO-K1 Tet-IGF1 cells, 24 hours
Description: Chinese hamster ovary cells (CHO-K1 Tet-On, Clontech Laboratories, Mountain View, Calif.), stably transfected to express the transactivator protein (rtTA) for a tetracycline inducible gene expression system, were cultured at 37° C. and 5% CO2 in DMEM supplemented with 10% tetracycline-free FBS (Clontech), 1% penicillin/streptomycin (Invitrogen, Carlsbad, Calif.), and 200 μg/mL G418 (Sigma-Aldrich). All cell counting was done using Trypan Blue exclusion and the COUNTESS® Automated Cell Counter (Invitrogen). […]
The quantity of human IGF-1 from each supernatant sample was determined using ELISA (R&D Systems, Minneapolis, Minn.) and SPECTRAMAX® Absorbance plate reader (Molecular Devices, Sunnydale, Calif.). All samples were run in triplicate and amount released was normalized to one million viable cells per sample as counted at the end of each study.
Modified and unmodified cells were plated in 6-well tissue culture plates at a density of 3×10^5 cells per well (n=6 per cell type). […] At the end of the study, cells were trypsinized and counted.
Modified encapsulated and unencapsulated cells were plated into 12-well tissue culture plates. […] At the end of the study, cells were trypsinized and counted.
Encapsulated modified and unmodified cells were plated in 12-well tissue culture plates at an equal density per well and cultured at 32° C. […] On day 10, capsules were solubilized and cells were counted.

C[C@H]1c2cccc(O)c2C(=O)C2=C(O)[C@]3(O)C(=O)C(C(N)=O)=C(O)[C@@H](N(C)C)[C@@H]3[C@@H](O)[C@@H]21 [DOX, doxycycline hydrochloride]
IGF-1 synthesis and delivery after 24 hours [1]: induced | DOX concentration giving detectable IGF-1 release [2]: ≥ 0.125 µg/mL
